The values that follow come from article PMC9834408, “The SPOC domain is a phosphoserine binding module that bridges transcription machinery with co- and post-transcriptional regulators” (Nature Communications, 2023).

One experiment deals with T1, PHF3 SPOC (Homo sapiens, UniProt Q92576).
T1 construct: His6-PHF3 SPOC was generated previously; His6 (N, cleaved yes); made in house; host or cells: E. coli Rosetta2 (DE3)
The experiment in a line: Fluorescence anisotropy binding of labeled peptides to PHF3 SPOC WT. As for the experimental part:
(§1) SPOC domains were expressed in E. coli Rosetta2 (DE3) cells (Novagen). ON cultures were diluted 1:50 in 2×TY, grown at 37 °C until OD600 = 0.8, and induced with 0.5 mM IPTG for 3 h at 30 °C. […] Elution with 25 mM Tris-Cl pH 7.4, 500 mM NaCl, and 500 mM Imidazole was followed by TEV cleavage of the His6-tag and size exclusion chromatography using Sephacryl S-200 HR 16/600 or 26/600 (Cytiva) equilibrated in 25 mM Tris-Cl pH 7.4, 25 mM NaCl, 1 mM DTT.
(§2) One molar equivalent of Atto-488 NHS ester (Atto-tec) and five equivalents of DIPEA (Sigma-Aldrich) was added to three equivalents of the peptide. Reactions were incubated ON at room temperature (RT) and protected from light. Labeled peptides were purified by reverse-phase HPLC over a C18 column (Agilent Technologies) using a gradient from 30 to 70% Methanol (Merck). Purified peptides were lyophilized and stored at −20 °C.
(§3) Fluorescence anisotropy measurements were performed on a Perkin Elmer LS50 B fluorescence spectrometer operated by Perkin Elmar FL WinLab software (version 3.00). The excitation wavelength was set to 500 nm (excitation slit 10 nm), the emission wavelength to 518 nm (emission slit 6 nm), and the integration time to 1 s. Measurements were conducted at 20 °C in 25 mM Tris-Cl pH 7.4, 25 mM NaCl, and 1 mM DTT. The grating factor was determined using unconjugated Atto-488 dye. […]
(In general: Polarisation of emitted light reports the rotation of a fluorescent probe.)

For another experiment, the target named is T2, PHF3 SPOC R1248A (Homo sapiens, UniProt Q92576, R1248A).
T2 construct: His6-PHF3 SPOC was generated previously; His6 (N, cleaved yes); made in house; host or cells: E. coli Rosetta2 (DE3)
T2 sequence (Q92576 1199-1356 R1248A limits assumed): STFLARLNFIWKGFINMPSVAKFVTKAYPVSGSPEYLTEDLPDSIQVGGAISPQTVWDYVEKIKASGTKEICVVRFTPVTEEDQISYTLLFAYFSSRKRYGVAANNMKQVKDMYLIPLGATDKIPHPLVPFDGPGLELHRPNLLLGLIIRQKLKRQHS
The experiment in a line: Fluorescence anisotropy binding of labeled peptides to PHF3 SPOC R1248A. The conditions noted are these: 90 nM labeled peptide, 25 mM Tris-Cl pH 7.4, 25 mM NaCl, 1 mM DTT, 20 °C, three independent experiments. From the text:
(§4) For mammalian expression, human DIDO3, SHARP, and RBM15 were amplified from HEK293T cDNA and cloned into CMV10 N3XFLAG (Sigma) by Gibson assembly (NEB). These constructs were used for cloning ΔSPOC truncations using Gibson assembly (NEB). CMV10 N3XFLAG-PHF3 and PHF3 ΔSPOC constructs were generated previously. NLS-SPOC constructs were cloned into CMV10 N3XFLAG (Sigma) between NotI and XbaI. NLS sequence ([…]) was introduced to ensure nuclear localization of the isolated SPOC domains. […] His6-PHF3 SPOC was generated previously. Arginine mutations were introduced by site-directed mutagenesis according to the FastCloning protocol. Repair templates for CRISPR/Cas9 knock-in were cloned by Gibson assembly. Primer sequences are listed in Supplementary Table 4.
(§5) SPOC domains were expressed in E. coli Rosetta2 (DE3) cells (Novagen). ON cultures were diluted 1:50 in 2×TY, grown at 37 °C until OD600 = 0.8, and induced with 0.5 mM IPTG for 3 h at 30 °C. […]
(§6) Fluorescence anisotropy measurements were performed on a Perkin Elmer LS50 B fluorescence spectrometer operated by Perkin Elmar FL WinLab software (version 3.00). […] The grating factor was determined using unconjugated Atto-488 dye. […]

For a further experiment, the target named is T3, DIDO SPOC (Homo sapiens, UniProt Q9BTC0).
T3 construct: human DIDO3 SPOC (1047–1205 aa); His6 (N, cleaved yes); made in house; host or cells: E. coli Rosetta2 (DE3)
The experiment in a line: Fluorescence anisotropy binding of labeled peptides to DIDO SPOC WT. The following applies: 90 nM labeled peptide, 25 mM Tris-Cl pH 7.4, 25 mM NaCl, 1 mM DTT, 20 °C, three independent experiments.
From the text: as §4, §5, §6

The target in a further experiment is T4, DIDO SPOC R1096A (Homo sapiens, UniProt Q9BTC0, R1096A).
T4 construct: human DIDO3 SPOC (1047–1205 aa); His6 (N, cleaved yes); made in house; host or cells: E. coli Rosetta2 (DE3)
T4 sequence (Q9BTC0 1047-1205 R1096A): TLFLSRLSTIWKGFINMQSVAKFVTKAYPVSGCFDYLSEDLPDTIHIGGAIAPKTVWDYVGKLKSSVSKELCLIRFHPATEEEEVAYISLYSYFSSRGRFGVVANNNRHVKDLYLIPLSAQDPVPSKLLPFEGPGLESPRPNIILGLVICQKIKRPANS
The experiment in a line: Fluorescence anisotropy binding of labeled peptides to DIDO SPOC R1096A. The following applies: 90 nM labeled peptide, 25 mM Tris-Cl pH 7.4, 25 mM NaCl, 1 mM DTT, 20 °C, three independent experiments.
From the text: as §4, §5, §6

The target of the next experiment is T5, RBM15 SPOC (Homo sapiens, UniProt Q96T37).
T5 construct: RBM15 SPOC (775–960 aa); His6 (N, cleaved yes); made in house; host or cells: E. coli Rosetta2 (DE3)
The experiment in a line: Fluorescence anisotropy binding of labeled peptides to RBM15 SPOC WT. The following applies: 90 nM labeled peptide, 25 mM Tris-Cl pH 7.4, 25 mM NaCl, 1 mM DTT, 20 °C, three independent experiments.
From the text: as §4, §1, §2, §3

The next experiment deals with T6, SHARP SPOC (Homo sapiens, UniProt Q96T58).
T6 construct: SHARP SPOC (3496–3664 aa); His6 (N, cleaved yes); made in house; host or cells: E. coli Rosetta2 (DE3)
The experiment in a line: Fluorescence anisotropy binding of labeled peptides to SHARP SPOC WT. The conditions noted are these: 90 nM labeled peptide, 25 mM Tris-Cl pH 7.4, 25 mM NaCl, 1 mM DTT, 20 °C, three independent experiments.

The target of a further experiment is T7, SHARP SPOC R3552A (Homo sapiens, UniProt Q96T58, R3552A).
T7 construct: SHARP SPOC (3496–3664 aa); His6 (N, cleaved yes); made in house; host or cells: E. coli Rosetta2 (DE3)
T7 sequence (Q96T58 3496-3664 R3552A): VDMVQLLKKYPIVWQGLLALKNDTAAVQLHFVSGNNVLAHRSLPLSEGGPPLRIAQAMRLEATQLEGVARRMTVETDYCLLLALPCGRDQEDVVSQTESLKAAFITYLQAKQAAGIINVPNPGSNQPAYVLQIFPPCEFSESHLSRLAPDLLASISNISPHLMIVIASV
The experiment in a line: Fluorescence anisotropy binding of labeled peptides to SHARP SPOC R3552A. The conditions noted are these: 90 nM labeled peptide, 25 mM Tris-Cl pH 7.4, 25 mM NaCl, 1 mM DTT, 20 °C, three independent experiments.
From the text: as §4, §5, §6

Several values for one entry are separate records, joined by “and”; a condition that tells them apart may be missing. Identical values can stand only once. Like-named read-outs stand apart in the source and are kept apart here. Where a SMILES comes first, the peptide text is derived from it. [ ]: non-standard residue; d: D form. The star is where a group is joined. 5FAM = O=C1OC2(c3ccc(O)cc3Oc3cc(O)ccc32)c2ccc(C(=O)*)cc21; pS = N[C@@H](COP(=O)(O)O)C(=O)O

Usually Kd stands for a measure of binding affinity in units of concentration.

T5 sequence (Q96T37 775-960): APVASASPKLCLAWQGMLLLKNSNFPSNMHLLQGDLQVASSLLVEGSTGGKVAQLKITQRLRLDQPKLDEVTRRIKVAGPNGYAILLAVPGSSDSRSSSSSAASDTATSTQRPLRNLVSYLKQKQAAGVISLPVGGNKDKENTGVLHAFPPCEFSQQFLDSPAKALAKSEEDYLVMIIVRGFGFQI
T1 sequence (Q92576 1199-1356 limits assumed): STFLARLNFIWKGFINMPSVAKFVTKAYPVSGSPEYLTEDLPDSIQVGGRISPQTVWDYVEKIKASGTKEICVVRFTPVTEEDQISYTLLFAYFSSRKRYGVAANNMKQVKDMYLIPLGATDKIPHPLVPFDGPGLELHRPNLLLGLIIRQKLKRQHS
T3 sequence (Q9BTC0 1047-1205): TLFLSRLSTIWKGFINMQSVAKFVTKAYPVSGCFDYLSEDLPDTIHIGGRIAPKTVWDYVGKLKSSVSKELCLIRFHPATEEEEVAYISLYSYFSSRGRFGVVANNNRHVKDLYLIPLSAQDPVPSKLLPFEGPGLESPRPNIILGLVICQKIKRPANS
T6 sequence (Q96T58 3496-3664): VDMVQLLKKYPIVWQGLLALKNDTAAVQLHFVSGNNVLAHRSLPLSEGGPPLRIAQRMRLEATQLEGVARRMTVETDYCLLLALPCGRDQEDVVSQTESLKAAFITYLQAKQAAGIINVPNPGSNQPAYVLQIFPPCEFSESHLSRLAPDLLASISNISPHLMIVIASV

For `C[C@@H](O)[C@H](NC(=O)[C@@H]1CCCN1C(=O)[C@H](COP(=O)(O)O)NC(=O)[C@H](Cc1ccc(O)cc1)NC(=O)[C@H](CO)NC(=O)[C@@H]1CCCN1C(=O)[C@H](CO)NC(=O)[C@@H](NC(=O)[C@@H]1CCCN1C(=O)[C@H](COP(=O)(O)O)NC(=O)[C@H](Cc1ccc(O)cc1)NC(=O)[C@H](CO)NC(=O)[C@@H]1CCCN1)[C@@H](C)O)C(=O)N[C@@H](CO)C(=O)N1CCC[C@H]1C(=O)N[C@@H](CO)C(=O)O` [2xS2P], the dissociation constant Kd is 0.42 ± 0.02 µM on PHF3 SPOC (PHF3 SPOC WT, fluorescence anisotropy, 90 nM labeled peptide titrated with SPOC domain, 25 mM Tris-Cl pH 7.4, 25 mM NaCl, 1 mM DTT, 20 °C, three independent experiments, read-out: Kd); 8.4 ± 0.3 µM on PHF3 SPOC R1248A; 4.8 ± 0.6 µM at DIDO SPOC; 22.4 ± 2.1 µM on DIDO SPOC R1096A. In turn, `C[C@@H](O)[C@H](NC(=O)[C@@H]1CCCN1C(=O)[C@H](CO)NC(=O)[C@H](Cc1ccc(O)cc1)NC(=O)[C@H](COP(=O)(O)O)NC(=O)[C@@H]1CCCN1C(=O)[C@H](CO)NC(=O)[C@@H](NC(=O)[C@@H]1CCCN1C(=O)[C@H](CO)NC(=O)[C@H](Cc1ccc(O)cc1)NC(=O)[C@H](CO)NC(=O)[C@@H]1CCCN1)[C@@H](C)O)C(=O)N[C@@H](CO)C(=O)N1CCC[C@H]1C(=O)N[C@@H](COP(=O)(O)O)C(=O)O` [2xS7P] displayed a dissociation constant Kd at RBM15 SPOC (Kd) of 23.5 ± 0.4 µM. On to `C[C@@H](O)[C@H](NC(=O)[C@@H]1CCCN1C(=O)[C@H](CO)NC(=O)[C@H](Cc1ccc(O)cc1)NC(=O)[C@H](CO)NC(=O)[C@@H]1CCCN1C(=O)[C@H](COP(=O)(O)O)NC(=O)[C@@H](NC(=O)[C@@H]1CCCN1C(=O)[C@H](CO)NC(=O)[C@H](Cc1ccc(O)cc1)NC(=O)[C@H](CO)NC(=O)[C@@H]1CCCN1)[C@@H](C)O)C(=O)N[C@@H](COP(=O)(O)O)C(=O)N1CCC[C@H]1C(=O)N[C@@H](CO)C(=O)O` [2xS5P], for which the Kd at SHARP SPOC was 20.6 ± 0.1 µM; at RBM15 SPOC (read-out: Kd) it was 11.8 µM and 29.6 µM.

For the compound `C[C@@H](O)[C@H](NC(=O)[C@@H]1CCCN1C(=O)[C@H](CO)NC(=O)[C@H](Cc1ccc(O)cc1)NC(=O)[C@H](CO)NC(=O)[C@@H]1CCCN1C(=O)[C@H](CO)NC(=O)[C@@H](NC(=O)[C@@H]1CCCN1C(=O)[C@H](COP(=O)(O)O)NC(=O)[C@H](Cc1ccc(O)cc1)NC(=O)[C@H](CO)NC(=O)[C@@H]1CCCN1)[C@@H](C)O)C(=O)N[C@@H](CO)C(=O)N1CCC[C@H]1C(=O)N[C@@H](CO)C(=O)O` [1xS2P], at PHF3 SPOC, the Kd was 103 ± 4 µM. Consider `CSCC[C@H](NC(=O)c1ccc2c(c1)C(=O)OC21c2ccc(O)cc2Oc2cc(O)ccc21)C(=O)N[C@H](C(=O)N[C@@H](CC(N)=O)C(=O)N[C@@H](CCC(=O)O)C(=O)N[C@@H](CCC(=O)O)C(=O)N1CCC[C@H]1C(=O)N[C@@H](CC(C)C)C(=O)N1CCC[C@H]1C(=O)N[C@@H](CCCCN)C(=O)N[C@@H](CCCCN)C(=O)N[C@H](C(=O)N[C@@H](CCCNC(=N)N)C(=O)N[C@@H](CC(C)C)C(=O)N[C@@H](COP(=O)(O)O)C(=O)N[C@@H](CCC(=O)O)C(=O)N[C@H](C(=O)N[C@@H](CC(=O)O)C(=O)N[C@@H](Cc1ccccc1)C(=O)N[C@@H](CCCCN)C(=O)O)[C@@H](C)O)C(C)C)[C@@H](C)O` [WTAP pS14] (5FAM-MTNEEPLPKKVRL[pS]ETDFK-OH), for which, on RBM15 SPOC (read-out: Kd), the Kd came out at 21.5 ± 1.5 µM. At SHARP SPOC R3552A, `CC(C)C[C@H](NC(=O)[C@H](CC(C)C)NC(=O)[C@@H]1CCCN1C(=O)[C@H](C)NC(=O)[C@@H]1CCCN1C(=O)[C@H](CCC(=O)O)NC(=O)[C@H](CCCNC(=N)N)NC(=O)c1ccc2c(c1)C(=O)OC21c2ccc(O)cc2Oc2cc(O)ccc21)C(=O)N[C@@H](CO)C(=O)N[C@@H](C)C(=O)N[C@@H](CCC(N)=O)C(=O)N[C@@H](Cc1ccc(O)cc1)C(=O)N[C@@H](CCC(=O)O)C(=O)N[C@H](C(=O)N[C@@H](CC(C)C)C(=O)N[C@@H](CO)C(=O)N[C@@H](CC(=O)O)C(=O)N[C@@H](CO)C(=O)N[C@@H](CC(=O)O)C(=O)N[C@@H](CC(=O)O)C(=O)O)[C@@H](C)O` [NCoR] (5FAM-REPAPLLSAQYETLSDSDD-OH) had a Kd of 262 ± 74.2 µM. `CC(C)C[C@H](NC(=O)[C@H](CC(C)C)NC(=O)[C@@H]1CCCN1C(=O)[C@H](C)NC(=O)[C@@H]1CCCN1C(=O)[C@H](CCC(=O)O)NC(=O)[C@H](CCCNC(=N)N)NC(=O)c1ccc2c(c1)C(=O)OC21c2ccc(O)cc2Oc2cc(O)ccc21)C(=O)N[C@@H](CO)C(=O)N[C@@H](C)C(=O)N[C@@H](CCC(N)=O)C(=O)N[C@@H](Cc1ccc(O)cc1)C(=O)N[C@@H](CCC(=O)O)C(=O)N[C@H](C(=O)N[C@@H](CC(C)C)C(=O)N[C@@H](COP(=O)(O)O)C(=O)N[C@@H](CC(=O)O)C(=O)N[C@@H](CO)C(=O)N[C@@H](CC(=O)O)C(=O)N[C@@H](CC(=O)O)C(=O)O)[C@@H](C)O` [NCoR pS2436] (5FAM-REPAPLLSAQYETL[pS]DSDD-OH) displayed a Kd at SHARP SPOC R3552A of 23.3 ± 0.5 µM.
